Experimental data taken from patent publication US20260098030A1, “NEGATIVE ALLOSTERIC MODULATORS OF METABOTROPIC GLUTAMATE RECEPTOR 2” (Vanderbilt University, priority 2022, published 2026).

Target: T1, rat mGlu2 (Rattus norvegicus, UniProt P31421)
T1 construct: expressed in transfected cells; host or cells: HEK-293 cells stably co-expressing GIRK channels
Test: mGlu GIRK cell-based thallium flux assay, rat mGlu2
Conditions: HEK-293 cells co-expressing rat mGlu2 and GIRK, EC80 glutamate
Protocol: (§1) Human embryonic kidney (HEK-293) cell lines stably co-expressing human or rat mGlu2 and G protein-coupled inwardly rectifying potassium (GIRK) channels, or human mGlu3 and GIRK, were used for in vitro evaluation of compound activity in thallium flux assay using a fluorescent thallium indicator dye.
(§2) The day before the assay, GIRK cells co-expressing human mGlu3, human or rat mGlu2, as described above, were plated in black-walled, clear-bottomed, amine-coated 384-well plates at a density of 15,000 cells/20 μL/well in the assay medium (glutamine-depleted basal DMEM supplemented with 10% dialyzed FBS, 20 mM HEPES, 1 mM sodium pyruvate). Cells were incubated at 37° C. in the presence of 5% CO2. The next day, assay buffer (Hanks balanced salt solution, 20 mM HEPES, 4.16 mM sodium bicarbonate, pH 7.2) was prepared to dilute compounds and Thallos AM fluorescent dye solution. The 2× Thallos dye solution (final concentration 0.34 μM to the cells) was prepared by mixing the dye stock (2.97 mM in DMSO) to 1:1 with 10% pluronic acid before adding to the assay buffer. Cells were washed with assay buffer using a microplate washer to remove the medium, resulting in 20 μL of buffer remaining in each well. Immediately, 20 μL of 2× Thallos dye solution was added to cells, and incubated for one hour at 25° C. During the cell dye loading incubation period, a 10-point concentration serial dilution of compound was created from a 10 mM DMSO compound stock by performing a 1:3 serial dilution in DMSO using the Bravo liquid handler. The 2× compound plate was generated by transferring 0.24 μL of the diluted compound in each well to a daughter plate using an Echo acoustic liquid handler. This is further diluted in 40 μL assay buffer, resulting in a range from 30 μM to 1.5 nM final concentration in the assay. The agonist plate (5×) was prepared to include EC80 glutamate concentration (a concentration to elicit 80% of a maximally effective glutamate concentration) in thallium buffer (125 mM […], 1 mM magnesium sulfate, 1.8 mM calcium sulfate, 5 mM glucose, 10 mM HEPES, pH 7.2, 12.5 mM thallium sulfate).
(§3) After dye-loading, cell plates were washed with assay buffer to remove excess extracellular dye using a microplate washer, resulting in 20 μL of buffer remaining in each well. After a ten-minute equilibration period, cell, compound and agonist plates were loaded into a Hamamatsu μCell kinetic imaging plate reader equipped with liquid handler to monitor fluorescence changes at 480 nm excitation and 540 nm emission settings. Briefly, after collection of baseline fluorescence, 20 μL of compound was added and incubated for two minutes and twenty seconds. This is immediately followed by adding 10 μL of glutamate-thallium buffer to the wells containing compound. The fluorescent signal was monitored an additional 2.5 minutes after the glutamate addition. Multiple reference wells containing no compound received either no glutamate (for a baseline reference), EC80 glutamate, or ECmax glutamate (for normalization to maximum response). Fluorescence was measured throughout the experiment at a frequency of 1 measurement per every 2 seconds before the glutamate addition and a frequency of 1 measurement per every 1 second after the glutamate addition. Each compound concentration series occurred one time in each plate, and replicates from two or three plates were used in each experimental run. Thallium solutions were handled and disposed of according to guidelines from the Vanderbilt University Chemical Safety department.
(§4) Data were normalized using a static ratio function (F/F0) by dividing every fluorescent measurement by the initial fluorescent value for the corresponding well. The increase in signal resulting from the glutamate/thallium addition of the second add was measured by determining the slope from 3 seconds to 13 seconds after the addition. […]

T1 sequence (P31421 19-872): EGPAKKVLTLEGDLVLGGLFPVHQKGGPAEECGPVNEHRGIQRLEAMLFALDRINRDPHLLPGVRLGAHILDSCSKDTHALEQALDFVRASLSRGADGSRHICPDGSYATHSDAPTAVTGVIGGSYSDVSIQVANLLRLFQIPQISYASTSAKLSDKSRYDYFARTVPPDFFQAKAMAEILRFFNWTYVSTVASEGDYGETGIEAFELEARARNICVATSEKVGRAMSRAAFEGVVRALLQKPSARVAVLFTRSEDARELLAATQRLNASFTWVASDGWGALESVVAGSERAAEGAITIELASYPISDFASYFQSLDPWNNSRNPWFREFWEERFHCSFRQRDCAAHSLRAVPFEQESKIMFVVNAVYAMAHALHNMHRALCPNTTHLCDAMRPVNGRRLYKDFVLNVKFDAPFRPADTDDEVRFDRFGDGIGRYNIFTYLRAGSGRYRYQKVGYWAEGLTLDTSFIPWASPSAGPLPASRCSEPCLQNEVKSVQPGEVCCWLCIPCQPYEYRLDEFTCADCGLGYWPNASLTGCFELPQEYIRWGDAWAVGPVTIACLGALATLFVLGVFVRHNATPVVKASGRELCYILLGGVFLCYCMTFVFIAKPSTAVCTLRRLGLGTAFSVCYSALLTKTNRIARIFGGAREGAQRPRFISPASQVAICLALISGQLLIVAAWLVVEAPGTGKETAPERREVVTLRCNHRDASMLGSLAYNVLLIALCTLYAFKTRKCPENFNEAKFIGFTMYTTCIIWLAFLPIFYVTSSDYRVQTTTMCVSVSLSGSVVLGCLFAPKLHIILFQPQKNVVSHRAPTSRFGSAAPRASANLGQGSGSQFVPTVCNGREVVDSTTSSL

| IC50 [nM] | SMILES |
| --- | --- |
| 1440 | COc1cc(C#N)cc(-c2cc3c(cc2-c2ccc(F)cc2F)C(=O)NC3)c1 [Compound 95, 3-(6-(2,4-difluorophenyl)-1-oxoisoindolin-5-yl)-5-methoxybenzonitrile] |
| 938 | Cc1cc(-c2cc3c(cc2-c2ccc(F)cc2F)C(=O)NC3)c(C)n1C [Compound 97, 6-(2,4-difluorophenyl)-5-(1,2,5-trimethyl-1H-pyrrol-3-yl)isoindolin-1-one] |
| > 10000 | N#Cc1cccc(-n2cc(-c3cc4c(cc3-c3ccc(F)cc3F)C(=O)NC4)cn2)c1 [Compound 99, 3-(4-(6-(2,4-difluorophenyl)-1-oxoisoindolin-5-yl)-1H-pyrazol-1-yl)benzonitrile] |
| 1120 | COc1ncccc1-c1cc2c(cc1-c1ccc(F)cc1F)C(=O)NC2 [Compound 100, 6-(2,4-difluorophenyl)-5-(2-methoxypyridin-3-yl)isoindolin-1-one] |
| > 10000 | O=C1NCc2cc(-c3cccnc3N3CCCC3)c(-c3ccc(F)cc3F)cc21 [Compound 102, 6-(2,4-difluorophenyl)-5-(2-(pyrrolidin-1-yl)pyridin-3-yl)isoindolin-1-one] |
| 2880 | N#Cc1ccc(-c2cc3c(cc2-c2ccc(F)cc2F)C(=O)NC3)c(F)c1 [Compound 103, 4-(6-(2,4-difluorophenyl)-1-oxoisoindolin-5-yl)-3-fluorobenzonitrile] |
| > 10000 | N#Cc1cc(-c2cc3c(cc2-c2ccc(F)cc2F)C(=O)NC3)ccn1 [Compound 104, 4-(6-(2,4-difluorophenyl)-1-oxoisoindolin-5-yl)picolinonitrile] |
| 4490 | COc1cc(F)ccc1-c1cc2c(cc1-c1ccc(F)cc1F)C(=O)NC2 [Compound 105, 6-(2,4-difluorophenyl)-5-(4-fluoro-2-methoxyphenyl)isoindolin-1-one] |
| 1420 | N#Cc1cc(F)cc(-c2cc3c(cc2-c2ccc(F)cc2F)C(=O)NC3)c1 [Compound 106, 3-(6-(2,4-difluorophenyl)-1-oxoisoindolin-5-yl)-5-fluorobenzonitrile] |
| 589 | N#Cc1cccc(-c2cc3c(cc2-c2ccc(F)cc2F)C(=O)NC3)c1 [Compound 107, 3-(6-(2,4-difluorophenyl)-1-oxoisoindolin-5-yl)benzonitrile] |
| 1130 | Cc1c(C#N)cccc1-c1cc2c(cc1-c1ccc(F)cc1F)C(=O)NC2 [Compound 109, 3-(6-(2,4-difluorophenyl)-1-oxoisoindolin-5-yl)-2-methylbenzonitrile] |
| > 10000 | O=C1NCc2cc(-c3cccnc3C(F)(F)F)c(-c3ccc(F)cc3F)cc21 [Compound 110, 6-(2,4-difluorophenyl)-5-(2-(trifluoromethyl)pyridin-3-yl)isoindolin-1-one] |
| > 10000 | N#Cc1ccc(-n2cc(-c3cc4c(cc3-c3ccc(F)cc3F)C(=O)NC4)cn2)cc1 [Compound 111, 4-(4-(6-(2,4-difluorophenyl)-1-oxoisoindolin-5-yl)-1H-pyrazol-1-yl)benzonitrile] |
| > 10000 | Cc1nnc(-c2ccc(-c3cc4c(cc3-c3ccc(F)cc3F)C(=O)NC4)cc2F)o1 [Compound 112, 6-(2,4-difluorophenyl)-5-(3-fluoro-4-(5-methyl-1,3,4-oxadiazol-2-yl)phenyl)isoindolin-1-one] |
| > 10000 | CN1CCN(c2ccc(-c3cc4c(cc3-c3ccc(F)cc3F)C(=O)NC4)cc2)CC1 [Compound 113, 6-(2,4-difluorophenyl)-5-(4-(4-methylpiperazin-1-yl)phenyl)isoindolin-1-one] |
| > 10000 | O=C1NCc2cc(-c3c[nH]nc3C(F)(F)F)c(-c3ccc(F)cc3F)cc21 [Compound 114, 6-(2,4-difluorophenyl)-5-(3-(trifluoromethyl)-1H-pyrazol-4-yl)isoindolin-1-one] |

Target: T2, human mGlu2 (Homo sapiens, UniProt Q14416)
T2 construct: expressed in transfected cells; host or cells: HEK-293 cells stably co-expressing GIRK channels
Test: mGlu GIRK cell-based thallium flux assay, human mGlu2
Conditions: HEK-293 cells co-expressing human mGlu2 and GIRK, EC80 glutamate
Protocol: as §1, §2, §3, §4

T2 sequence (Q14416 19-872): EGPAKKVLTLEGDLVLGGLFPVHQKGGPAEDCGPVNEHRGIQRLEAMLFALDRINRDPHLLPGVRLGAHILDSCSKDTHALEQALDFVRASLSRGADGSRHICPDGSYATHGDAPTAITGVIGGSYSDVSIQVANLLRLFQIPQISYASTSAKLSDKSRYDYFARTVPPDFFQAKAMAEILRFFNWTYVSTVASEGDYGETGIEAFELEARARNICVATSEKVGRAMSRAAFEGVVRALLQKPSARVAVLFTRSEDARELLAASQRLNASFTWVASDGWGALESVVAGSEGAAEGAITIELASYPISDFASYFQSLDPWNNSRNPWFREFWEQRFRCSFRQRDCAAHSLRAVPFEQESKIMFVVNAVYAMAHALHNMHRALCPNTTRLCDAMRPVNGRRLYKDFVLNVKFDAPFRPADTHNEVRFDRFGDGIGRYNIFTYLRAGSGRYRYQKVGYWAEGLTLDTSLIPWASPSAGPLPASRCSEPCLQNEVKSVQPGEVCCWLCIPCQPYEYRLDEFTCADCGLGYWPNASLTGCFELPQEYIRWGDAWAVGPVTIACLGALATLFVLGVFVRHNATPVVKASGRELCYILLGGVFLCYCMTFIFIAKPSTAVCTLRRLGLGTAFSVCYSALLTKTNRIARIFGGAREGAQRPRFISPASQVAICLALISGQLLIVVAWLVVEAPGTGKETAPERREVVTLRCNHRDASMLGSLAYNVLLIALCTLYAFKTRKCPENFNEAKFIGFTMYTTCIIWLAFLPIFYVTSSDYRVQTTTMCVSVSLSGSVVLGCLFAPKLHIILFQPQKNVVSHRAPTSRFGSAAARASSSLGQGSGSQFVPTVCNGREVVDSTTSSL

| IC50 [nM] | SMILES |
| --- | --- |
| > 10000 | O=C1NCc2cc(-c3cnn(C4COC4)c3)c(-c3ccc(F)cc3)cc21 [Compound 3, 6-(4-fluorophenyl)-5-(1-(oxctan-3-yl)-1H-pyrazol-4-yl)isoindolin-1-one] |
| 234 | Cn1ncc(-c2cc3c(cc2-c2ccc(F)cc2F)C(=O)NC3)c1C#N [Compound 115, 4-(6-(2,4-difluorophenyl)-1-oxoisoindolin-5-yl)-1-methyl-1H-pyrazole-5-carbonitrile] |
| 931 | CS(=O)(=O)Nc1cccc(-c2cc3c(cc2-c2ccc(F)cc2F)C(=O)NC3)c1 [Compound 116, N-(3-(6-(2,4-difluorophenyl)-1-oxoisoindolin-5-yl)phenyl)methanesulfonamide] |
| 737 | CNC(=O)c1cc(Cl)cc(-c2cc3c(cc2-c2ccc(F)cc2F)C(=O)NC3)c1 [Compound 117, 3-chloro-5-(6-(2,4-difluorophenyl)-1-oxoisoindolin-5-yl)-N-methylbenzamide] |
| 1990 | CC(C)NC(=O)c1cccc(-c2cc3c(cc2-c2ccc(F)cc2F)C(=O)NC3)c1 [Compound 118, 3-(6-(2,4-difluorophenyl)-1-oxoisoindolin-5-yl)-N-isopropylbenzamide] |
| 2700 | CNS(=O)(=O)c1cccc(-c2cc3c(cc2-c2ccc(F)cc2F)C(=O)NC3)c1 [Compound 119, 3-(6-(2,4-difluorophenyl)-1-oxoisoindolin-5-yl)-N-methylbenzenesulfonamide] |
| 1050 | CC(=O)Nc1ccccc1-c1cc2c(cc1-c1ccc(F)cc1F)C(=O)NC2 [Compound 120, N-(2-(6-(2,4-difluorophenyl)-1-oxoisoindolin-5-yl)phenyl)acetamide] |
| 1440 | CNC(=O)c1ccc(F)c(-c2cc3c(cc2-c2ccc(F)cc2F)C(=O)NC3)c1 [Compound 121, 3-(6-(2,4-difluorophenyl)-1-oxoisoindolin-5-yl)-4-fluoro-N-methylbenzamide] |
| 1290 | CS(=O)(=O)c1cccc(-c2cc3c(cc2-c2ccc(F)cc2F)C(=O)NC3)c1 [Compound 122, 6-(2,4-difluorophenyl)-5-(3-(methylsulfonyl)phenyl)isoindolin-1-one] |
| 447 | N#Cc1cc(F)ccc1-c1cc2c(cc1-c1ccc(F)cc1F)C(=O)NC2 [Compound 123, 2-(6-(2,4-difluorophenyl)-1-oxoisoindolin-5-yl)-5-fluorobenzonitrile] |
| 496 | N#Cc1ccccc1-c1cc2c(cc1-c1ccc(F)cc1F)C(=O)NC2 [Compound 124, 2-(6-(2,4-difluorophenyl)-1-oxoisoindolin-5-yl)benzonitrile] |
| 1140 | Cn1cc(-c2cc3c(cc2-c2ccc(F)cc2F)C(=O)NC3)cc1C#N [Compound 125, 4-(6-(2,4-difluorophenyl)-1-oxoisoindolin-5-yl)-1-methyl-1H-pyrrole-2-carbonitrile] |
| > 10000 | Cc1noc(C)c1-c1cc2c(cc1-c1ccc(F)cc1F)C(=O)NC2 [Compound 126, 6-(2,4-difluorophenyl)-5-(3,5-dimethylisoxazol-4-yl)isoindolin-1-one] |
| 7940 | CS(=O)(=O)n1cc(-c2cc3c(cc2-c2ccc(F)cc2F)C(=O)NC3)cn1 [Compound 127, 6-(2,4-difluorophenyl)-5-(1-(methylsulfonyl)-1H-pyrazol-4-yl)isoindolin-1-one] |
| 3410 | CS(=O)(=O)c1ccccc1-c1cc2c(cc1-c1ccc(F)cc1F)C(=O)NC2 [Compound 128, 6-(2,4-difluorophenyl)-5-(2-(methylsulfonyl)phenyl)isoindolin-1-one] |
| 767 | CCn1cc(-c2cc3c(cc2-c2ccc(F)cc2F)C(=O)NC3)c(C(F)(F)F)n1 [Compound 129, 6-(2,4-difluorophcnyl)-5-(1-cthyl-3-(trifluoromethyl)-1H-pyrazol-4-yl)isoindolin-1-one] |
| 1000 | CC(C)Cn1cc(-c2cc3c(cc2-c2ccc(F)cc2F)C(=O)NC3)cn1 [Compound 130, 6-(2,4-difluorophenyl)-5-(1-isobutyl-1H-pyrazol-4-yl)isoindolin-1-one] |
